# Reference: US4595757A, “N-alkylated benzo- and hetero-fused antisecretory agents” (American Home Products Corporation, priority 1984, dated 1986)
# How the values were obtained:
# [1] = molecular target: T1, (H^+ +K^+)ATPase (Rattus norvegicus, UniProt P09626); experiment: Inhibition of dibutyryl cyclic AMP-stimulated 14C-aminopyrine uptake by rat gastric mucosal cells ((H^+ +K^+)ATPase inhibition); type: cell-based; conditions: 37° C., 2 hours
# T1 construct: Rat gastric mucosal tissue is collected from 170-220 g male Sprague-Dawley rats; from tissue; host or cells: Dispersed gastric mucosal cells from male Sprague-Dawley rats (Pronase E digestion)
# Description: The procedures for these tests and the results for some of the compounds of the invention are presented at the end of the following examples, which will serve to illustrate the present invention. The determination of the rate of gastric acid secretion cannot be measured quantitatively with isolated gastric glands or cells. However, the acid secretory response can be monitored semiquantitatively by measuring the uptake of a radiolabelled weak base, ^14 C-aminopyrine (^14 C-AP), which accumulates in the glands in proportion to the pH differences between the intraglandular acid compartments and the surrounding medium. The following assay uses this effect in order to measure the ability of the compounds of the invention to inhibit gastric acid secretion by blocking (H^+ +K^+)ATPase. Rat gastric mucosal tissue is collected from 170-220 g male Sprague-Dawley rats. […] The Pronase E is poured off and the tissues are rinsed in a small amount of DNAse solution (2.5 mg DNAse in 10 ml of Hanks Balanced Salt Solution (HBE) with addition of 1 mg/ml of BSA and 0.76 mg/ml of EGTA). 4 ml of stock DNAse solution is added to 76 ml of HBE and aerated before use. The pH of the solution is adjusted to 7.5 with 2M Tris Buffer. The comminuted tissue is passed through nylon mesh into DNAse solution and incubated at ambient temperature for 20 minutes. The cells obtained thereby are dispersed, filtered through nylon mesh and centrifuged at 1000 RPM's for 7 minutes. […] Immediately before use, 6.1 mg of L-cysteine is dissolved in 5 ml RPMI-BSA. The final incubation medium is (by volume) 80% RPMI-BSA, 10% glucose/PA/IMX solution and 10% L-cysteine solution. For the actual assay procedure, microfuge tubes are prepared as follows: Into each tube are placed (a) 100 μl of the stimulant dibutyryl cyclic AMP made up in H2 O or an equal volume of distilled H2 O; (b) 100 μl of drug made up in RPMSI-BSA or an equal volume of RPMI-BSA; (c) 750 μl of the cell suspension; and (d) 50 μl of ^14 C-aminopyrine solution. The tubes are shaken in a 37° C. water bath in a O2 /CO2 (95/5%) atmosphere at about 110 cycles/minute, and incubated for 2 hours. The tubes are then microfuged for 30 seconds, the pellet surface rinsed with 500 μl RPMI-BSA and the cells dispersed in 500 μl distilled H2 O. The cells are then transferred to mini-scintillation vials with 5.75 ml of Hydrofluor, vortexed and counted in a Packard liquid scintillation counter. The inhibition of ^14 C-AP uptake is quantified from the scintillation count results and the IC50 for test compounds is calculated. The results for some of the compounds of the invention and for the two known (H^+ +K^+)ATPase inhibitors, omeprazole and timoprazole, are given in Table I.
# [2] = tested on: spontaneous gastric secretions; experiment: Pyloric-ligated rat assay (inhibition of gastric acid output); type: in vivo; conditions: male rats, intraduodenal, 4 hours after pylorus ligation
# Method: The procedures for these tests and the results for some of the compounds of the invention are presented at the end of the following examples, which will serve to illustrate the present invention. […] Male Charles River SC/CD rats weighing 190-260 gm are fasted for 24 hours with access to tap water ad libitum until the test. Groups of 10 rats each are assigned to either control or drug treatment. Under […] anesthesia, a midline laparotomy is performed and a ligature is tightly secured around the pylorus. Either control vehicle (0.25% aqueous methylcellulose) or drug in control vehicle is administered intraduodenally, 1 ml/kg, immediately after ligating the pylorus. The abdominal incision is closed with wound clips and the rats (2 per cage) are allowed to recover from anesthesia. After four hours the rats are sacrificed by CO2 asphyxiation. Their stomachs are removed and the accumulated gastric contents are emptied into graduated tubes. The gastric samples are centrifuged for 10 minutes. Samples contaminated with food or fecal material are discarded. The volume of gastric juice is recorded and the acid concentration of 1.0 ml sample aliquots is measured by electrometric titration to pH 7.0 using 0.1N sodium hydroxide. Titratable acid output is calculated in microequivalents and the percent inhibition of acid output is calculated as follows: [formula] The test results for a compound of the invention and for the known (H^+ +K^+)ATPase inhibitors omeprazole and timoprazole, expressed as ED50 's, are as follows: […]
# [3] = tested on: cold restraint/stress ulcerogenesis; experiment: Cold restraint/stress ulcerogenesis assay (cytoprotective effect); type: in vivo; conditions: Rattus norvegicus; male rats, oral, cold (4±1° C.) restraint; read-out: Inhibition, ED50 (cold restraint/stress ulcers)
# Method: The procedures for these tests and the results for some of the compounds of the invention are presented at the end of the following examples, which will serve to illustrate the present invention. The ability of the compounds of the invention to exert a cytoprotective effect is examined in the cold restraint/stress ulcerogenesis assay. Male Charles River rats weighing between 120-160 gm are deprived of food for 18 hours with water ad libitum. The rats are divided into groups of ten and dosed by the oral route with test compound, 50 mg/kg, or vehicle control, 0.5% carboxymethylcellulose, in a volume of 5 ml/kg. Immediately after dosing, the animals are inserted into aluminum restraining tubes measuring 15/8 inches in diameter by 8 inches and placed in the cold (4±1° C.). […] At the end of the test period the animals are killed, the duodenum and esophagus ligated, and the stomach removed. The stomachs are inflated with water, opened along the lesser curvature, spread over the index finger, and the mucosa wiped off to expose the submucosa. The number of hemorrhage sites in the submucosa are counted by visual observation and recorded. Compounds are reported by determining (A) a percent inhibition which is calculated as follows: [formula] or (B) a mean ulcer number ±S.E.M. for each drug treated group and comparing it to that calculated for the control group. The test results for a compound of the invention and for the known (H^+ +K^+)ATPhase inhibitors omeprazole and timoprazole, expressed as ED50 's, are as follows: […]
# [4] = tested on: (H^+ +K^+)ATPase; conditions: Fellenius, Nature 220, 159-160 (1981); cited from earlier work
# [5] = tested on: isolated guinea pig gastric mucosa; conditions: dibutyryl cyclic AMP stimulation after pretreatment with theophylline; cited from earlier work
# [6] = molecular target: T2, H2-receptor (Cavia porcellus, UniProt P47747); experiment: Histamine-induced positive chronotropic response in the spontaneously beating right atrium of the guinea pig heart (H2-receptor antagonism); conditions: at a level of 1×10^-6 M; 30 minutes after addition
# T2 construct: from tissue; host or cells: Guinea pig right atrium, spontaneously beating
# Method: The tissue is allowed to stabilize over 1 hour. Individual contractions are recorded with a force-displacement transducer through a strain gauge coupler. […] The test compound is added to the tissue bath at the desired final concentration. Thirty minutes after addition of the compound, a fresh histamine dose response curve is again obtained. Then the response to histamine in the presence of antagonist is compared to the histamine control response. This procedure is repeated, using fresh tissues, for each concentration of antagonist tested.
# [7] = tested on: gastric secretions; conditions: cited from earlier work
# T1 sequence (P09626 whole entry): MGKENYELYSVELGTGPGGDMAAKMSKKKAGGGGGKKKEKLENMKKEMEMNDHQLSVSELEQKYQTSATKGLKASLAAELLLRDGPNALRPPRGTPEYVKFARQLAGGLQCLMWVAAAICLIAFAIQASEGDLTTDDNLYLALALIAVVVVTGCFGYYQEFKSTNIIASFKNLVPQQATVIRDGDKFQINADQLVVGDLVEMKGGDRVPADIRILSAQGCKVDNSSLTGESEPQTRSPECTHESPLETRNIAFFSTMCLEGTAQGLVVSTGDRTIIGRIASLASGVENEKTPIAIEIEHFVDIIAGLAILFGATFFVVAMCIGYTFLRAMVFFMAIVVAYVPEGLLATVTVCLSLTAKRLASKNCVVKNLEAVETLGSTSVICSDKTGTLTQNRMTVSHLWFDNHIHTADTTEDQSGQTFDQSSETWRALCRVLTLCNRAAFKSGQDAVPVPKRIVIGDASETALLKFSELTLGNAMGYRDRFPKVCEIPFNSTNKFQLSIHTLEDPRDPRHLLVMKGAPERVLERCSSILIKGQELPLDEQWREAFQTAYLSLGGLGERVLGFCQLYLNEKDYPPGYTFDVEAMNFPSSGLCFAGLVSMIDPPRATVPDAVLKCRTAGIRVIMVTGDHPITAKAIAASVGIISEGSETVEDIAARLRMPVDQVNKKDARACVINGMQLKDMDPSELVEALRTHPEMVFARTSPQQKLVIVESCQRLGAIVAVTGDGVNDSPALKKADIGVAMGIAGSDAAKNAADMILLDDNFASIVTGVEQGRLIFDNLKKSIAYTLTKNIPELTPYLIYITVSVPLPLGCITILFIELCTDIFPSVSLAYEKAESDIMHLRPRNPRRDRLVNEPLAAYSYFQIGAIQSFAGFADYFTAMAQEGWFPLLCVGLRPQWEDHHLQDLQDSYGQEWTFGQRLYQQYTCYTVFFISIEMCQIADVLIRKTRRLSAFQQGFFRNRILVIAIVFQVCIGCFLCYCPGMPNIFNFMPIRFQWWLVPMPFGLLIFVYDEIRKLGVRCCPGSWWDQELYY
# T1 sequence (P18598 whole entry partner): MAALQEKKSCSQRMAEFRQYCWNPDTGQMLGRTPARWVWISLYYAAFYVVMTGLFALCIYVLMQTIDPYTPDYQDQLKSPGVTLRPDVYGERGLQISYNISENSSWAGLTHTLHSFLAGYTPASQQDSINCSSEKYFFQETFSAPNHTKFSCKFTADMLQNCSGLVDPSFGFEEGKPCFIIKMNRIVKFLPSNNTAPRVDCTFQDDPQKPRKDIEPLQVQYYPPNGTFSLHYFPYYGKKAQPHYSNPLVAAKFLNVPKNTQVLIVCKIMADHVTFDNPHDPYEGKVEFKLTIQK
# T2 sequence (P47747 whole entry): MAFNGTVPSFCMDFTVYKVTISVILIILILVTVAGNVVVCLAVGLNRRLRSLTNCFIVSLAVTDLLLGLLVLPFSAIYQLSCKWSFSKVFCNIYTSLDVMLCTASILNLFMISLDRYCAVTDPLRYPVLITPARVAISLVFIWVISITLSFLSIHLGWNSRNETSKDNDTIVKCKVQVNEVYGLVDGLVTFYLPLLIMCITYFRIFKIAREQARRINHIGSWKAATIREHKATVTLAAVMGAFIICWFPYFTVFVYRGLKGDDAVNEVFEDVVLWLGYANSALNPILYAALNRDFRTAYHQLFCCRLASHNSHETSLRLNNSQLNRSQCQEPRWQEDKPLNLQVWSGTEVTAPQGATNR
IC50 [1] [nM],Structure (SMILES),ED50 [2] [mg/kg],ED50 [3] [mg/kg],other results
100,"O=S1(=O)N=C(N(CCCOc2cccc(CN3CCCCC3)c2)Cc2ccccc2)c2ccccc21 [Example 2, N-(Phenylmethyl)-N-[3-[3-(1-piperidinylmethyl)phenoxy]propyl]-1,2-benzoisothiazol-3-amine 1,1-dioxide, ethanedioate]",–,–,–
10,COc1ccc2[nH]c([S+]([O-])Cc3ncc(C)c(OC)c3C)nc2c1 (centres unmarked) [omeprazole],6,12,inhibition of proton transport by inhibition of (H^+ +K^+)ATPase [4]: only omeprazole inhibited proton transport by the inhibition of (H^+ +K^+)ATPase; inhibition of stimulated secretion in isolated guinea pig gastric mucosa [5]: such stimulated secretion can be inhibited by omeprazole
400,"O=S1(=O)N=C(N(CCCOc2cccc(CN3CCCCC3)c2)Cc2ccccc2)c2cscc21 [Example 1, N-(Phenylmethyl)-N-[3-[3-(1-piperidinylmethyl)phenoxy]propyl]thieno[3,4-d]isothiazol-3-amine 1,1-dioxide, ethanedioate (1:1)]",8,6,H2-receptor antagonist activity (guinea pig right atrium) [6]: inactive
10000,Nc1c(N(CCCOc2cccc(CN3CCCCC3)c2)Cc2ccc3c(c2)OCO3)c(=O)c1=O [Example 4],–,–,–

# Second part, the molecule before the results:
Structure (SMILES),IC50 [1] [nM],ED50 [2] [mg/kg],ED50 [3] [mg/kg],other results
"O=S1(=O)N=C(N(CCCOc2cccc(CN3CCCCC3)c2)Cc2ccc3c(c2)OCO3)c2cscc21 [Example 3, N-(1,3-benzodioxol-5-ylmethyl)-N-[3-[3-(1-piperidinylmethyl)phenoxy]propyl]thieno[3,4-d]isothiazol-3-amine 1,1-dioxide, ethanedioate (1:1)]",5000,–,–,–
CN/C(=N/CCSCc1nc[nH]c1C)NC#N [cimetidine],–,–,–,inhibition of gastric secretions [7]: inhibit only those gastric secretions which were agonized by histamine; inhibition of proton transport by inhibition of (H^+ +K^+)ATPase [4]: devoid of this activity
[O-][S+](Cc1ccccn1)c1nc2ccccc2[nH]1 (centres unmarked) [timoprazole],1000,4,8,–
